From patent publication US11987581B1 (KING FAISAL UNIVERSITY, priority 2023, dated 2024)
pIC50: −log10 of the molar value.

Molecular target: T1, recombinant human CK2 (RRββ-holoenzyme) (Homo sapiens, UniProt P68400)
T1 construct: purchased Millipore
Test: CK2 Kinase Assay (radiometric, [γ-33P] ATP)
Format: biochemical
Details: final ATP concentration 15 μM; 10 min at 30° C.; eight concentrations; read-out: protein kinase CK2 activity IC50
Method: CK2 Kinase Assay was conducted using the protocol as described in Pierre F. et al; J. Med. Chem. 2011, 54, 635-654. The tested compounds in aqueous solution were added at a volume of 10 μL to a reaction mixture comprising 10 μL of assay dilution buffer (ADB; 20 mM MOPS, pH 7.2, 25 mM β-glycerol phosphate, 5 mM EGTA, 1 mM sodium orthovanadate, and 1 mM dithiothreitol), 10 μL of substrate peptide (RRRDDDSDDD, dissolved in ADB at a concentration of 1 mM), 10 μL of recombinant human CK2 (RRββ-holoenzyme, 25 ng dissolved in ADB; Millipore). Reactions were initiated by the addition of 10 μL of ATP solution (90% 75 mMMgCl2, 75 μM ATP (final ATP concentration: 15 μM) dissolved in ADB; 10% [γ-33P] ATP (stock 1 mCi/100 μL; 3000 Ci/mmol (Perkin-Elmer) and maintained for 10 min at 30° C. The reactions were quenched with 100 μL of 0.75% phosphoric acid and then transferred to and filtered through a phosphor cellulose filter plate (Millipore). After washing each well five times with 0.75% phosphoric acid, the plate was dried under vacuum for 5 min and, following the addition of 15 μL of scintillation fluid to each well, the residual radioactivity was measured using a Wallac luminescence counter. The IC50 values were derived from eight concentrations of test inhibitors.

T1 sequence (P68400 whole entry): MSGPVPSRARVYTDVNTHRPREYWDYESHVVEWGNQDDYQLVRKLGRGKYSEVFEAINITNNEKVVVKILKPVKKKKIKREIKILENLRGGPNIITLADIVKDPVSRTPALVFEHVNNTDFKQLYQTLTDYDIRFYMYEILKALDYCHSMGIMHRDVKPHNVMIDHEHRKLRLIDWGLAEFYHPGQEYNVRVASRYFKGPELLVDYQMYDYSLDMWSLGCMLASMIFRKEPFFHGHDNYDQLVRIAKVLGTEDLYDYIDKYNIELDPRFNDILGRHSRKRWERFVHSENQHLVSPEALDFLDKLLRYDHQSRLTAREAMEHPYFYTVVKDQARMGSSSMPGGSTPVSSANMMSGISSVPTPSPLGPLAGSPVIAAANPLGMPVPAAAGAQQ
T1 sequence (P67870 whole entry partner): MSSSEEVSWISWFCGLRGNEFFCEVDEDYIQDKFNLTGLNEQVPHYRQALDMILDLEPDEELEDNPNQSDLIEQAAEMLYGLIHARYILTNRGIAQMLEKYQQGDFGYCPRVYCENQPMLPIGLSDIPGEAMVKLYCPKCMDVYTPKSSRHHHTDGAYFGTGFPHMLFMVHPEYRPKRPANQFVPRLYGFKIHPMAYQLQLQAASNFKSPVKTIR

pIC50: 7.39
Structure (SMILES): O=C(O)c1cn2c(Nc3cccc(Cl)c3)nc3ccncc3c2n1 [Compound 1]
